Experimental findings from patent US20080269241A1, “BICYCLIC AMINOPROPYL TETRAHYDRO-PYRAZOLO-PYRIDINE MODULATORS OF CATHEPSIN S” (priority 2007, published 2008) are described below.

In this assay the target is T1, human cathepsin S (CatS) (Homo sapiens, UniProt P25774).
T1 construct: made in house; host or cells: baculovirus system (insect cells)
Briefly: Recombinant human cathepsin S (CatS) fluorogenic substrate inhibition assay. It is filed as biochemical. To be noted: recombinant human CatS, 10 μM Z-Valine-Valine-Arginine-AMC, pH 5.0; average of results obtained; read-out: CatS IC50. The method, then:
Recombinant human cathepsin S (CatS) was expressed in the baculovirus system and purified in one step with a thiopropyl-sepharose column. […] The assay is run in 150 mM sodium acetate pH 5.0 containing 1.5 mM DTT and 150 mM NaCl. […] Measurements are taken every min for 20 min. The rate is calculated from the slope of the increase in fluorescence and the percent inhibition is calculated from this.

T1 sequence (P25774 115-331): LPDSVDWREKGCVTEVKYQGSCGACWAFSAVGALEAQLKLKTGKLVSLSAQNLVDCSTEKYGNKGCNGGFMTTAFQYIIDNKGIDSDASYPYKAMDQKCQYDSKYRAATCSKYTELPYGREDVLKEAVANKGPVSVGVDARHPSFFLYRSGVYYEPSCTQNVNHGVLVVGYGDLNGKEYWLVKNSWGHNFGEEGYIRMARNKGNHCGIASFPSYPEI

For the compound `CS(=O)(=O)N1CCc2c(c(-c3ccc(Cl)c(CNC(=O)c4ccc(F)cc4)c3)nn2CC(O)CN2CCC(N3CCCC3=O)CC2)C1` (centres unmarked) [Example 1, N-[2-Chloro-5-(1-{2-hydroxy-3-[4-(2-oxo-pyrrolidin-1-yl)-piperidin-1-yl]-propyl}-5-methanesulfonyl-4,5,6,7-tetrahydro-1H-pyrazolo[4,3-c]pyridin-3-yl)-benzyl]-4-fluoro-benzamide], the IC50 (usually the concentration that inhibits the measured activity by half) is 20 nM.
As for `CS(=O)(=O)N1CCc2c(c(-c3ccc(C(F)(F)F)c(CNC(=O)c4ccc(Cl)s4)c3)nn2CC(O)CN2CCC(N3CCCC3=O)CC2)C1` (centres unmarked) [Example 6, 5-Chloro-thiophene-2-carboxylic acid 5-(1-{2-hydroxy-3-[4-(2-oxo-pyrrolidin-1-yl)-piperidin-1-yl]-propyl}-5-methanesulfonyl-4,5,6,7-tetrahydro-1H-pyrazolo[4,3-c]pyridin-3-yl)-2-trifluoromethyl-benzylamide], the IC50 is 30 nM.
The same measure for `CS(=O)(=O)N1CCc2c(c(-c3ccc(Cl)c(CNC(=O)c4ccc(F)cc4)c3)nn2CC(O)CN2CCC(N3CCCC3)CC2)C1` (centres unmarked) [Example 14, N-(2-Chloro-5-{1-[2-hydroxy-3-(4-pyrrolidin-1-yl-piperidin-1-yl)-propyl]-5-methanesulfonyl-4,5,6,7-tetrahydro-1H-pyrazolo[4,3-c]pyridin-3-yl}-benzyl)-4-fluoro-benzamide]: 100 nM; for `CS(=O)(=O)N1CCc2c(c(-c3ccc(C(F)(F)F)c(CNC(=O)c4ccc(F)cc4)c3)nn2CC(O)CN2CCC(N3CCCC3=O)CC2)C1` (centres unmarked) [Example 17, 4-Fluoro-N-[5-(1-{2-hydroxy-3-[4-(2-oxo-pyrrolidin-1-yl)-piperidin-1-yl]-propyl}-5-methanesulfonyl-4,5,6,7-tetrahydro-1H-pyrazolo[4,3-c]pyridin-3-yl)-2-trifluoromethyl-benzyl]-benzamide]: 20 nM; for `CC(C)=CC(=O)NCc1cc(-c2nn(CC(O)CN3CCC(N4CCOCC4)CC3)c3c2CN(S(C)(=O)=O)CC3)ccc1C(F)(F)F` (centres unmarked) [Example 30, 3-Methyl-but-2-enoic acid 5-{1-[2-hydroxy-3-(4-morpholin-4-yl-piperidin-1-yl)-propyl]-5-methanesulfonyl-4,5,6,7-tetrahydro-1H-pyrazolo[4,3-c]pyridin-3-yl}-2-trifluoromethyl-benzylamide]: 40 nM.
The same measure for `CC(C)CC(=O)NCc1cc(-c2nn(CCCN3CCC(N4CCCC4=O)CC3)c3c2CN(S(C)(=O)=O)CC3)ccc1C(F)(F)F` [Example 36, N-[5-(5-Methanesulfonyl-1-{3-[4-(2-oxo-pyrrolidin-1-yl)-piperidin-1-yl]-propyl}-4,5,6,7-tetrahydro-1H-pyrazolo[4,3-c]pyridin-3-yl)-2-trifluoromethyl-benzyl]-3-methyl-butyramide]: 80 nM; for `CS(=O)(=O)N1CCc2c(c(-c3ccc(C(F)(F)F)c(CNC(=O)Cc4ccccc4)c3)nn2CCCN2CCC(N3CCCC3=O)CC2)C1` [Example 37, N-[5-(5-Methanesulfonyl-1-{3-[4-(2-oxo-pyrrolidin-1-yl)-piperidin-1-yl]propyl}-4,5,6,7-tetrahydro-1H-pyrazolo[4,3-c]pyridin-3-yl)-2-trifluoromethyl-benzyl]-2-phenyl-acetamide]: 480 nM; for `CN(C)CC(=O)NCc1cc(-c2nn(CCCN3CCC(N4CCCC4=O)CC3)c3c2CN(S(C)(=O)=O)CC3)ccc1C(F)(F)F` [Example 38, 2-Dimethylamino-N-[5-(5-methanesulfonyl-1-{3-[4-(2-oxo-pyrrolidin-1-yl)-piperidin-1-yl]-propyl}-4,5,6,7-tetrahydro-1H-pyrazolo[4,3-c]pyridin-3-yl)-2-trifluoromethyl-benzyl]-acetamide]: 1540 nM.
